Measurements published in patent US11814367B2, “Inhibitors of glycogen synthase 1 (GYS1) and methods of use thereof” (Maze Therapeutics, Inc., priority 2021, dated 2023).

Assays:
[1] = target: hGYS1 enzyme (recombinant hGYS1/GN1 protein) (Homo sapiens (Human), UniProt P13807); experiment: GYS1 coupled enzyme assay (PK/LDH); format: biochemical; conditions: hGYS1/GN1 50 nM, UDP-Glucose 0.8 mM, G6P 1 mM; geometric mean of at least 2 runs
[2] = target: hGYS2 enzyme (recombinant hGYS2/GN1 protein) (Homo sapiens (Human), UniProt P54840); experiment: GYS2 coupled enzyme assay (PK/LDH); format: biochemical; conditions: geometric mean of at least 2 assay runs on separate days, read-out: Avg_IC50
Chain of hGYS2 enzyme (recombinant hGYS2/GN1 protein) (P54840 whole entry): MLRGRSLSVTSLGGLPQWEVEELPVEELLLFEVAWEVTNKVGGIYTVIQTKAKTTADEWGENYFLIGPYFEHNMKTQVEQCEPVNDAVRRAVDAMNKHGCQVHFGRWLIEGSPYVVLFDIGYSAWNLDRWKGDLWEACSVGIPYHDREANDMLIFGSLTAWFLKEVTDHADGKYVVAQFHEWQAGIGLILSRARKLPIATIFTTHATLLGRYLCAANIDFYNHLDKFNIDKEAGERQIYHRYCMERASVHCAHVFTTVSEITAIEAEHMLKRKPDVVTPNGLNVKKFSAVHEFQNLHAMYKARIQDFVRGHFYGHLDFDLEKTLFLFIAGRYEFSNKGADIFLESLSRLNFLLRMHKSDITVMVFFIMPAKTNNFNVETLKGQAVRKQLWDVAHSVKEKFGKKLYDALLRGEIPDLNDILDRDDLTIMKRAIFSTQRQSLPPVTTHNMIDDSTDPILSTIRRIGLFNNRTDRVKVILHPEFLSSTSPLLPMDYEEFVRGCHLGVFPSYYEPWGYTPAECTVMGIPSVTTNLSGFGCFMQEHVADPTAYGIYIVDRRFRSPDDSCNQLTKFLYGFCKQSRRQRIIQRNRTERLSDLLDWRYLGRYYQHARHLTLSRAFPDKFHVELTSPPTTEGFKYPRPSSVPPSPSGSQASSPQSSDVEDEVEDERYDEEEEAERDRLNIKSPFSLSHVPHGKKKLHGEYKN
Chain of hGYS2 enzyme (recombinant hGYS2/GN1 protein) (P46976 whole entry partner): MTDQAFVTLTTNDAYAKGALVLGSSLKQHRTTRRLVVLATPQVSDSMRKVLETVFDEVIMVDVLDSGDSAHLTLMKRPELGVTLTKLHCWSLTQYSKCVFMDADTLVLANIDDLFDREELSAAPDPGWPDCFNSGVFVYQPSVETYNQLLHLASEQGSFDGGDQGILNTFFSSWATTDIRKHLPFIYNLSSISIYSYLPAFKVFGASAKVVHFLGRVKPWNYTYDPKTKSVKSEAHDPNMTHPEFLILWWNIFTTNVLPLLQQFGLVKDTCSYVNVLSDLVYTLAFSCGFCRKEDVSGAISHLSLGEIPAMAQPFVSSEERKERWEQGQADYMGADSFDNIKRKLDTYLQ
Excerpt: The GYS2 coupled enzyme assay is a kinetic biochemical assay that indirectly quantifies the rate of glycogen synthesis by coupling the conversion of GYS2 substrate UDP-glucose into UDP with downstream enzymatic reactions. UDP is released from UDP-glucose as glucose monomers are linked into the growing glycogen strand by GYS2. The coupled assay then proceeds with pyruvate kinase utilizing UDP and phospho(enol)pyruvate (PEP) to form pyruvate. Lactate dehydrogenase then converts pyruvate and NADH into lactate and NAD+. Oxidation of NADH to NAD+ can be measured continuously with a plate reader by quantifying the decrease in NADH absorbance at 340 nm over time.
Compounds that inhibit the hGYS2 enzyme and, subsequently, the downstream conversion of NADH to NAD+, were tested using assay ready plates (black, clear bottom 384 well plates) in a final DMSO reaction volume of 2.5% DMSO. The Assay Buffer contained 50 mM Tris pH 7.5, 2 mM MgCl2, and 100 mM KCl. Fresh stocks of BSA at a final concentration of 0.02% and TCEP 1 mM were added before splitting buffer into hGYS2 buffer and substrate buffer. To the hGYS2 buffer, rabbit liver glycogen was added at a final concentration of 0.2% glycogen. Glucose-6-Phosphate was added at 2 mM, recombinant hGYS2/GN1 protein was added at 200 nM to the substrate buffer, phosphoenolpyruvate (PEP) was added at 2 mM, UDP-Glucose was added at 2 mM, NADH was added at 0.6 mM, and Pyruvate Kinase/Lactate Dehydrogenase was added at 20 units/mL. The reaction was initiated by mixing hGYS2 buffer and substrate buffer at a 1:1 ratio. Both buffers were plated using a liquid dispensing device with hGYS2 buffer plated first followed by the substrate buffer. Plates were spun briefly to eliminate air bubbles and are immediately read in continuous mode at an absorbance of 340 nm, for 10 time points in one-minute increments, for a total of 10 minutes. The slope from these 10 time points was normalized to the positive and negative control wells. The duplicate % inhibition values are then averaged and fit to a Hill equation for dose response according to the Levenberg-Marquardt algorithm with the Hill equation maximum set to 100 and the minimum set to 0.
The results are shown in Table 4 below, which reports the IC50 of each compound. Unless otherwise specified, IC50 values are reported as the geometric mean of at least 2 assay runs on separate days. As shown in the table below, the compounds of the present invention are not potent inhibitors of human GYS2. Unless otherwise specified, IC50 values are reported as the geometric mean of at least two assay runs on separate days. Each run represents the average of a technical replicate, where each compound was assayed twice in the same plate. A superscript “#” symbol in Table 4 indicates results from a single assay run.

Chain of hGYS1 enzyme (recombinant hGYS1/GN1 protein) (P13807 whole entry): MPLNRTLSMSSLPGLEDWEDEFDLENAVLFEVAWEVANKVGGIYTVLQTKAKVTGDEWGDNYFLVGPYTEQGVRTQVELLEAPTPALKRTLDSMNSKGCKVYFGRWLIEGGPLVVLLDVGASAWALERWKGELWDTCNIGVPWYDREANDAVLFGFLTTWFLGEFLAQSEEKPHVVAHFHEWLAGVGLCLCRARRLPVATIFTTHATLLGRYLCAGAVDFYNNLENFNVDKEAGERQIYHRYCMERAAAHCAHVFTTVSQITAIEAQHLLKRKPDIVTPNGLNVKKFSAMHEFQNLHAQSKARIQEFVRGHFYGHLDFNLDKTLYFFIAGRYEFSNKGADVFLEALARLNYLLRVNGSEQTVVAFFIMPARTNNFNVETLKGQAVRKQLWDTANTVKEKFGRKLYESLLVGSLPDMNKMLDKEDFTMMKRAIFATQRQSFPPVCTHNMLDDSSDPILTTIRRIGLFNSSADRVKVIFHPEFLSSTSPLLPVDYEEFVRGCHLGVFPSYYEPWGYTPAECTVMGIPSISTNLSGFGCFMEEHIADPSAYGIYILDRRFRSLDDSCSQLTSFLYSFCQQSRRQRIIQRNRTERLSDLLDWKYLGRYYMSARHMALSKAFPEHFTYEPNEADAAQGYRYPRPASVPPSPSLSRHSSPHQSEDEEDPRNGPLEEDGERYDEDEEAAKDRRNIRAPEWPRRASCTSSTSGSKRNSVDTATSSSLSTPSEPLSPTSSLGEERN
Chain of hGYS1 enzyme (recombinant hGYS1/GN1 protein) (P46976 whole entry partner): as the sequence (P46976 whole entry partner) above

`CC(C)c1ccc([C@@H](NC(=O)[C@@H]2C[C@@H](F)CN2C(=O)CCc2ccc(=O)[nH]n2)c2ccccc2)cc1` [Compound 114, (2S,4R)-4-fluoro-1-[3-(6-oxo-1,6-dihydropyridazin-3-yl)propanoyl]-N-[(S)-phenyl[4-(propan-2-yl)phenyl]methyl]pyrrolidine-2-carboxamide] showed an IC50 [1] of 208 nM and an IC50 [2] greater than 100000 nM.
Work on `O=C(N[C@@H](c1ccccc1)c1ccc(C2CC2)c(F)c1)[C@@H]1C[C@@H](F)CN1C(=O)Cc1nnc(C(F)(F)F)o1` [Compound 428, (2S,4R)-N-[(S)-(4-cyclopropyl-3-fluorophenyl)(phenyl)methyl]-4-fluoro-1-{2-[5-(trifluoromethyl)-1,3,4-oxadiazol-2-yl]acetyl}pyrrolidine-2-carboxamide] yielded an IC50 [1] of 374 nM and an IC50 [2] greater than 100000 nM.
`CC(C)c1ccc([C@@H](NC(=O)[C@@H]2C[C@@H](F)CN2C(=O)CCc2cn[nH]c2)c2ccccc2)cc1` [Compound 46, (2S,4R)-4-fluoro-N-[(S)-phenyl[4-(propan-2-yl)phenyl]methyl]-1-[3-(1H-pyrazol-4-yl)propanoyl]pyrrolidine-2-carboxamide] showed an IC50 [1] of 136 nM and an IC50 [2] greater than 100000 nM.
For `CC(=O)N1CC2(CCC(C(=O)N3C[C@H](F)C[C@H]3C(=O)N[C@@H](c3ccccc3)c3ccc(C(C)C)cc3)O2)C1` (stereo partly drawn) [Compound 163, (2S,4R)-1-{2-acetyl-5-oxa-2-azaspiro[3.4]octane-6-carbonyl}-4-fluoro-N-[(S)-phenyl[4-(propan-2-yl)phenyl]methyl]pyrrolidine-2-carboxamide], the IC50 [1] was 135 nM and the IC50 [2] was greater than 100000 nM.
For `Cc1ccccc1OCC(=O)N1C[C@H](F)C[C@H]1C(=O)N[C@@H](c1ccccc1)c1ccc(C(C)C)cc1` [Compound 91, (2S,4R)-4-fluoro-1-[2-(2-methylphenoxy)acetyl]-N-[(S)-phenyl[4-(propan-2-yl)phenyl]methyl]pyrrolidine-2-carboxamide], the IC50 [1] was 47 nM and the IC50 [2] was greater than 100000 nM.
With `CC(C)c1ccc([C@@H](NC(=O)[C@@H]2C[C@@H](F)CN2C(=O)Cc2nn[nH]n2)c2ccccc2)cc1` (stereo in doubt) [Compound 223, (2RS,4R)-4-fluoro-N-[(S)-phenyl[4-(propan-2-yl)phenyl]methyl]-1-[2-(2H-1,2,3,4-tetrazol-5-yl)acetyl]pyrrolidine-2-carboxamide] the IC50 [1] was 62 nM and the IC50 [2] was greater than 100000 nM.
With `Cc1cc(CCC(=O)N2C[C@H](F)C[C@H]2C(=O)N[C@@H](c2ccccc2)c2ccc(C(C)C)cc2)ccn1` [Compound 99, (2S,4R)-4-fluoro-1-[3-(2-methylpyridin-4-yl)propanoyl]-N-[(S)-phenyl[4-(propan-2-yl)phenyl]methyl]pyrrolidine-2-carboxamide] the IC50 [1] was 65 nM and the IC50 [2] was greater than 100000 nM.
With `CC(C)c1ccc([C@@H](NC(=O)[C@@H]2CCCN2C(=O)Cc2ncco2)c2ccccc2)cc1` [Compound 216, (2S)-1-[2-(1,3-oxazol-2-yl)acetyl]-N-[(S)-phenyl[4-(propan-2-yl)phenyl]methyl]pyrrolidine-2-carboxamide] the IC50 [1] was 247 nM and the IC50 [2] was greater than 100000 nM.
`CC(C)c1ccc([C@@H](NC(=O)[C@@H]2C[C@@H](F)CN2C(=O)Cc2nnc[nH]2)c2ccccc2)cc1` [Compound 194, (2S,4R)-4-fluoro-N-[(S)-phenyl[4-(propan-2-yl)phenyl]methyl]-1-[2-(4H-1,2,4-triazol-3-yl)acetyl]pyrrolidine-2-carboxamide] gave an IC50 [1] of 27 nM and an IC50 [2] greater than 100000 nM.
Molecule `CC(C)c1ccc([C@@H](NC(=O)[C@@H]2C[C@@H](F)CN2C(=O)C(C)n2ccnn2)c2ccccc2)cc1` (stereo partly drawn) [Compound 33, (2S,4R)-4-fluoro-N-[(S)-phenyl[4-(propan-2-yl)phenyl]methyl]-1-[2-(1H-1,2,3-triazol-1-yl)propanoyl]pyrrolidine-2-carboxamide] has an IC50 [1] of 106 nM and an IC50 [2] greater than 100000 nM.
For `CC(C)c1ccc([C@@H](NC(=O)[C@@H]2C[C@@H](F)CN2C(=O)Cc2cn(C)nn2)c2ccccc2)cc1` (stereo in doubt) [Compound 229, (2RS,4R)-4-fluoro-1-[2-(1-methyl-1H-1,2,3-triazol-4-yl)acetyl]-N-[(S)-phenyl[4-(propan-2-yl)phenyl]methyl]pyrrolidine-2-carboxamide], the IC50 [1] was 25 nM and the IC50 [2] was greater than 100000 nM.
For `CC(C)c1ccc([C@@H](NC(=O)[C@@H]2C[C@@H](F)CN2C(=O)Cc2cnccn2)c2ccccc2)cc1` [Compound 26, (2S,4R)-4-fluoro-N-[(S)-phenyl[4-(propan-2-yl)phenyl]methyl]-1-[2-(pyrazin-2-yl)acetyl]pyrrolidine-2-carboxamide], the IC50 [1] was 36 nM and the IC50 [2] was greater than 100000 nM.
`CC(=O)N1C[C@H]2C[C@H](C(=O)N3C[C@H](F)C[C@H]3C(=O)N[C@@H](c3ccccc3)c3ccc(C(C)C)cc3)O[C@H]2C1` [Compound 162, (2S,4R)-1-[(2R,3aR,6aR)-5-acetyl-hexahydro-2H-furo[2,3-c]pyrrole-2-carbonyl]-4-fluoro-N-[(S)-phenyl[4-(propan-2-yl)phenyl]methyl]pyrrolidine-2-carboxamide] was tested, and the IC50 [1] was 136 nM and the IC50 [2] was greater than 100000 nM.
For `CC(=O)N[C@H](CCC(=O)O)C(=O)N1C[C@H](F)C[C@H]1C(=O)N[C@@H](c1ccccc1)c1ccc(C(C)C)cc1` [Compound 197, (4R)-4-acetamido-5-[(2S,4R)-4-fluoro-2-{[(S)-phenyl[4-(propan-2-yl)phenyl]methyl]carbamoyl}pyrrolidin-1-yl]-5-oxopentanoic acid], the IC50 [1] was 128 nM and the IC50 [2] was greater than 100000 nM.
`CC(C)c1ccc([C@@H](NC(=O)[C@@H]2C[C@@H](F)CN2C(=O)C2(c3nnco3)CC2)c2ccccc2)cc1F` [Compound 333, (2S,4R)-4-fluoro-N-[(S)-[3-fluoro-4-(propan-2-yl)phenyl](phenyl)methyl]-1-[1-(1,3,4-oxadiazol-2-yl)cyclopropanecarbonyl] pyrrolidine-2-carboxamide] showed an IC50 [1] of 165 nM and an IC50 [2] greater than 100000 nM.
Molecule `COc1ccc(CC(=O)N2C[C@H](F)C[C@H]2C(=O)N[C@@H](c2ccccc2)c2ccc(C(C)C)cc2)cc1` [Compound 88, (2S,4R)-4-fluoro-1-[2-(4-methoxyphenyl)acetyl]-N-[(S)-phenyl[4-(propan-2-yl)phenyl]methyl]pyrrolidine-2-carboxamide] has an IC50 [1] of 49 nM and an IC50 [2] greater than 100000 nM.
For `CC(C)c1ccc([C@@H](NC(=O)[C@@H]2C[C@@H](F)CN2C(=O)CN2CCCC2=O)c2ccccc2)cc1` [Compound 192, (2S,4R)-4-fluoro-1-[2-(2-oxopyrrolidin-1-yl)acetyl]-N-[(S)-phenyl[4-(propan-2-yl)phenyl]methyl]pyrrolidine-2-carboxamide], the IC50 [1] was 76 nM and the IC50 [2] was greater than 100000 nM.
Molecule `CC(C)c1ccc([C@@H](NC(=O)[C@@H]2C[C@@H](F)CN2C(=O)Cc2c[nH]c3ccccc23)c2ccccc2)cc1` [Compound 86, (2S,4R)-4-fluoro-1-[2-(1H-indol-3-yl)acetyl]-N-[(S)-phenyl[4-(propan-2-yl)phenyl]methyl]pyrrolidine-2-carboxamide] has an IC50 [1] of 12 nM and an IC50 [2] greater than 100000 nM.
Molecule `CC(=O)N[C@H](CC(N)=O)C(=O)N1C[C@H](F)C[C@H]1C(=O)N[C@@H](c1ccccc1)c1ccc(C(C)C)cc1` [Compound 209, (2S,4R)-1-[(2R)-3-carbamoyl-2-acetamidopropanoyl]-4-fluoro-N-[(S)-phenyl[4-(propan-2-yl)phenyl]methyl]pyrrolidine-2-carboxamide] has an IC50 [1] of 91 nM and an IC50 [2] greater than 100000 nM.
With `Cc1noc(CC(=O)N2C[C@H](F)C[C@H]2C(=O)N[C@@H](c2ccccc2)c2ccc(C(C)C)cc2)n1` [Compound 31, (2S,4R)-4-fluoro-1-[2-(3-methyl-1,2,4-oxadiazol-5-yl)acetyl]-N-[(S)-phenyl[4-(propan-2-yl)phenyl]methyl]pyrrolidine-2-carboxamide] the IC50 [1] was 48 nM and the IC50 [2] was greater than 100000 nM.
`CC(C)c1ccc([C@@H](NC(=O)[C@@H]2C[C@@H](F)CN2C(=O)Cc2ncccn2)c2ccccc2)cc1` [Compound 28, (2S,4R)-4-fluoro-N-[(S)-phenyl[4-(propan-2-yl)phenyl]methyl]-1-[2-(pyrimidin-2-yl)acetyl]pyrrolidine-2-carboxamide] showed an IC50 [2] greater than 100000 nM.
